Results taken from ChEMBL document CHEMBL1201862, “PubChem BioAssay data set” (2004).
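Test compounds were applied to cells in 96-well plates for 48 hours at 5 doses. GI50: concentration for 50% inhibition of growth.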 Calls of active or inactive are those of the source. Cut-off read from the data, not from the text of the source: active = GI50 up to about 1.1 µM and inactive = higher.

Key:
Experiment in all cases: NCI anticancer screen, dose series, 48 h
IGROV-1 = system: IGROV-1
CAKI-1 = system: CAKI-1
HOP-62 = system: HOP-62
LOX IMVI = system: LOX IMVI
SK-OV-3 = system: SK-OV-3
NCI-H226 = system: NCI-H226
HT-29 = system: HT-29
UACC-62 = system: UACC-62
HOP-92 = system: HOP-92
MOLT-4 = system: MOLT-4
OVCAR-4 = system: OVCAR-4
OVCAR-5 = system: OVCAR-5
SF-539 = system: SF-539
RXF 393 = system: RXF 393
SK-MEL-5 = system: SK-MEL-5
SR = system: SR

Measured: GI50

Oc1cc(-c2ccccc2)c2ccccc2n1
inactive: IGROV-1 23.9 µM | CAKI-1 13.4 µM | HOP-62 28.2 µM | LOX IMVI 57.9 µM | SK-OV-3 20.5 µM | NCI-H226 25.8 µM | HT-29 > 100 µM | UACC-62 48.3 µM | HOP-92 5.62 µM | MOLT-4 37.8 µM | OVCAR-4 73.6 µM | OVCAR-5 64.4 µM | SF-539 52.7 µM | RXF 393 36.2 µM | SK-MEL-5 16.6 µM | SR 45.5 µM

[N-]=[N+]=Nc1ccc(CCN2CCN(c3cccc(C(F)(F)F)c3)CC2)cc1I
inactive: CAKI-1 40.1 µM | LOX IMVI > 100 µM | SK-OV-3 > 100 µM | NCI-H226 > 100 µM | HT-29 29.4 µM | UACC-62 > 100 µM | MOLT-4 40.4 µM | OVCAR-4 > 100 µM | OVCAR-5 34 µM | SF-539 > 100 µM | RXF 393 33.1 µM | SK-MEL-5 65.8 µM | SR 35.1 µM

COc1ccccc1/N=N/C(C(=O)c1ccccc1)C(=O)c1ccccc1
inactive: IGROV-1 27 µM | CAKI-1 25.2 µM | HOP-62 15.5 µM | LOX IMVI 17.9 µM | SK-OV-3 45.1 µM | NCI-H226 14.4 µM | HT-29 25.9 µM | UACC-62 13.2 µM | MOLT-4 9.48 µM | OVCAR-4 9.53 µM | OVCAR-5 32.1 µM | SF-539 26.2 µM | SK-MEL-5 18 µM

Cc1ccc(C)c2sc3cc(=O)ccc-3nc12
inactive: IGROV-1 82 µM | CAKI-1 22 µM | HOP-62 28.7 µM | SK-OV-3 > 100 µM | NCI-H226 75.2 µM | HT-29 44 µM | UACC-62 17.5 µM | HOP-92 28.1 µM | MOLT-4 15 µM | OVCAR-4 21.1 µM | OVCAR-5 30.8 µM | SF-539 32.2 µM | SK-MEL-5 16.5 µM | SR 26.4 µM

CCOC(=O)[C@H](CCCNC(=O)OC(C)(C)C)NCc1ccc(OC)c(OC)c1
inactive: IGROV-1 > 100 µM | CAKI-1 > 100 µM | HOP-62 > 100 µM | LOX IMVI > 100 µM | SK-OV-3 > 100 µM | NCI-H226 > 100 µM | HT-29 > 100 µM | UACC-62 > 100 µM | HOP-92 > 100 µM | MOLT-4 > 100 µM | OVCAR-4 > 100 µM | OVCAR-5 > 100 µM | SF-539 > 100 µM | RXF 393 > 100 µM | SK-MEL-5 > 100 µM | SR > 100 µM

CC(=O)O[C@H]1CC[C@@]2(C)C(=C/C(=N\[N+](=O)[O-])[C@H]3C4CCC([C@H](C)CCCC(C)C)[C@@]4(C)CCC32)C1 (stereo not given in full)
inactive: IGROV-1 > 100 µM | CAKI-1 > 100 µM | HOP-62 > 100 µM | LOX IMVI > 100 µM | SK-OV-3 > 100 µM | NCI-H226 > 100 µM | HT-29 > 100 µM | UACC-62 > 100 µM | HOP-92 > 100 µM | MOLT-4 > 100 µM | OVCAR-4 > 100 µM | OVCAR-5 > 100 µM | SF-539 > 100 µM | RXF 393 > 100 µM | SK-MEL-5 > 100 µM

C#CCN(C(=O)C(F)(F)F)c1ccc(C(=O)c2ccc(N(CC#C)C(=O)C(F)(F)F)cc2)cc1
inactive: IGROV-1 33.1 µM | HOP-62 48.2 µM | HT-29 19.5 µM | UACC-62 21.6 µM | HOP-92 34.8 µM | MOLT-4 15.1 µM | OVCAR-4 28.7 µM | OVCAR-5 49.9 µM | SF-539 37.8 µM | RXF 393 35.3 µM | SK-MEL-5 > 100 µM

COc1ccc2c(c1)c1c3n2CCNN=C3CCC1
inactive: IGROV-1 > 85.7 µM | CAKI-1 24.8 µM | HOP-62 > 74.3 µM | LOX IMVI > 64.6 µM | SK-OV-3 > 75.2 µM | NCI-H226 > 100 µM | HT-29 > 100 µM | UACC-62 60.4 µM | HOP-92 > 49.2 µM | MOLT-4 > 37.5 µM | OVCAR-4 > 100 µM | OVCAR-5 > 57.4 µM | SF-539 > 77.4 µM | SK-MEL-5 > 100 µM | SR 10.4 µM

O=C(O)c1ccc(S(=O)(=O)c2ccccc2)c([N+](=O)[O-])c1
inactive: IGROV-1 > 100 µM | CAKI-1 > 100 µM | HOP-62 > 100 µM | LOX IMVI > 100 µM | SK-OV-3 > 100 µM | NCI-H226 > 100 µM | HT-29 > 100 µM | UACC-62 > 100 µM | HOP-92 > 100 µM | MOLT-4 > 100 µM | OVCAR-4 > 100 µM | OVCAR-5 > 100 µM | SF-539 > 100 µM | RXF 393 > 100 µM | SK-MEL-5 > 100 µM | SR > 100 µM

CCOC(=O)C1=C(Nc2ccc(Br)cc2)OC/C1=N\NC(=O)c1ccccc1O
inactive: IGROV-1 6.46 µM | CAKI-1 6.49 µM | HOP-62 11.2 µM | LOX IMVI 5.37 µM | SK-OV-3 12.8 µM | NCI-H226 38.9 µM | HT-29 40.4 µM | UACC-62 2.67 µM | MOLT-4 11.4 µM | OVCAR-4 26.2 µM | OVCAR-5 46.1 µM | SF-539 11.2 µM | RXF 393 1.29 µM | SK-MEL-5 49.7 µM | SR 9.06 µM

O=C(NC1C=Nc2ccccc2NC1=O)c1ccccc1Cl (stereo not given)
inactive: IGROV-1 36.8 µM | CAKI-1 46.8 µM | HOP-62 > 100 µM | LOX IMVI 18.2 µM | SK-OV-3 > 100 µM | NCI-H226 94 µM | HT-29 55.7 µM | UACC-62 33.6 µM | HOP-92 31.4 µM | MOLT-4 12.6 µM | OVCAR-4 33.3 µM | OVCAR-5 > 100 µM | SF-539 > 100 µM | RXF 393 13 µM | SK-MEL-5 45.8 µM | SR 31.8 µM

C[Si](C)(C)C(CCCCSc1ccccc1)(Sc1ccccc1)Sc1ccccc1
inactive: CAKI-1 > 100 µM | LOX IMVI > 100 µM | SK-OV-3 > 100 µM | UACC-62 36.1 µM | HOP-92 73.6 µM | MOLT-4 > 100 µM | OVCAR-4 > 100 µM | SF-539 > 100 µM | RXF 393 > 100 µM | SK-MEL-5 > 100 µM | SR > 100 µM

Oc1cc(C2OCCCO2)cc(O)c1O
inactive: IGROV-1 > 100 µM | CAKI-1 > 100 µM | HOP-62 > 100 µM | SK-OV-3 > 100 µM | NCI-H226 > 100 µM | HT-29 > 100 µM | UACC-62 > 100 µM | MOLT-4 > 100 µM | OVCAR-4 > 100 µM | OVCAR-5 > 100 µM | SF-539 > 100 µM | SK-MEL-5 > 100 µM | SR > 100 µM

CC(=O)NC(CC(C)C)C(=O)NC(Cc1ccccc1)C(=S)N1CCCC1 (stereo not given)
inactive: IGROV-1 > 100 µM | CAKI-1 > 100 µM | HOP-62 > 100 µM | LOX IMVI > 100 µM | SK-OV-3 > 100 µM | NCI-H226 74.8 µM | HT-29 > 100 µM | UACC-62 > 100 µM | HOP-92 > 100 µM | MOLT-4 > 100 µM | OVCAR-4 > 100 µM | OVCAR-5 > 100 µM | RXF 393 > 100 µM | SK-MEL-5 > 100 µM

COC(=O)C1CCc2c1c(=O)n1c([nH]c3ccccc31)c2C#N (stereo not given)
inactive: IGROV-1 > 100 µM | CAKI-1 > 100 µM | HOP-62 > 100 µM | LOX IMVI > 100 µM | SK-OV-3 > 100 µM | NCI-H226 > 100 µM | HT-29 > 100 µM | UACC-62 > 100 µM | HOP-92 > 100 µM | OVCAR-4 > 100 µM | OVCAR-5 > 100 µM | SF-539 > 100 µM | RXF 393 > 100 µM | SK-MEL-5 > 100 µM

CC(C)(C)c1ccc(OC2CCO2)cc1 (stereo not given)
inactive: IGROV-1 > 100 µM | CAKI-1 38.1 µM | HOP-62 > 100 µM | SK-OV-3 > 100 µM | NCI-H226 27.9 µM | HT-29 23.1 µM | UACC-62 24 µM | HOP-92 35.4 µM | MOLT-4 38.1 µM | OVCAR-4 34.2 µM | OVCAR-5 32.7 µM | SF-539 37.6 µM | SK-MEL-5 36.3 µM

COC(=O)C1C=CCC2CCCCC21N1CCCC1 (stereo not given)
inactive: IGROV-1 > 100 µM | CAKI-1 > 100 µM | HOP-62 > 100 µM | LOX IMVI > 100 µM | SK-OV-3 > 100 µM | NCI-H226 87.7 µM | HT-29 48.1 µM | UACC-62 > 100 µM | HOP-92 34 µM | MOLT-4 64.4 µM | OVCAR-4 > 100 µM | OVCAR-5 > 100 µM | SF-539 > 100 µM | RXF 393 > 100 µM | SK-MEL-5 84.3 µM | SR 76.7 µM

CC(C)NC(C)Cc1ccccc1 (stereo not given)
inactive: IGROV-1 > 100 µM | CAKI-1 > 100 µM | HOP-62 > 100 µM | LOX IMVI > 100 µM | SK-OV-3 > 100 µM | NCI-H226 > 100 µM | HT-29 > 100 µM | UACC-62 > 100 µM | HOP-92 > 100 µM | OVCAR-4 > 100 µM | OVCAR-5 > 100 µM | SF-539 > 100 µM | RXF 393 > 100 µM | SK-MEL-5 > 100 µM | SR > 100 µM

COC(=O)/C(C)=C(/CCC1(C)OCCO1)O[Si](C)(C)C
inactive: IGROV-1 > 100 µM | CAKI-1 > 100 µM | HOP-62 > 100 µM | LOX IMVI > 100 µM | SK-OV-3 > 100 µM | HT-29 > 100 µM | UACC-62 > 100 µM | HOP-92 > 100 µM | MOLT-4 > 100 µM | OVCAR-4 > 100 µM | OVCAR-5 > 100 µM | SF-539 > 100 µM | RXF 393 > 100 µM | SK-MEL-5 > 100 µM
